Key:
[1] = system: VCAP human prostate cancer tumor cells; assay: VCaP CRPC CDX model in castrated mice (Example 6), tumor growth inhibition and tolerability; type: in vivo
Description: Procedure: The experimental details of the studies, including tumor model, mouse strain, cell number implanted, vehicle used, days of treatment, treatment details, and average tumor size at start of dosing are outlined in Table 7. All study mice were obtained and the studies were conducted at Pharmaron. Each mouse was inoculated subcutaneously on the right flank with the single cell suspension of VCAP human prostate cancer tumor cells (1×10^7) in 0.1 mL with Matrigel (1:1) in DMEM medium with 10% FBS for tumor development. The mice were castrated by removing the testes via a scrotal approach when the tumor volume reached 270 mm^3. After castration, the tumor volume decreased. Treatment started when the mean tumor volume grew back 265 mm^3. Based on tumor volume, mice were randomly assigned to respective groups using a computer-generated randomization procedure and treated according to the study design in Table 8.

[2] = system: PC3 prostate xenograft tumors; assay: PC3 prostate xenograft tumor model, tumor growth inhibition; type: in vivo, mice
Description: Procedure: The experimental details of the studies, including tumor model, mouse strain, cell number implanted, vehicle used, days of treatment, treatment details, and average tumor size at start of dosing are outlined in Table 1. All study mice were purchased from Beijing Anikeeper Biotech and Matrigel was utilized as a basement membrane for all xenograft models. All xenografts were engrafted subcutaneously in the right flank region. The vehicles and Compound 1 (3 mg/kg) were administered twice weekly (BIW) intraperitoneally and enzalutamide (30 mg/kg) was administered orally once daily (QD), when applicable. Tumor volumes and body weights were measured over the course of study, and doses were adjusted by body weight to achieve the proper dose in terms of mg/kg.

[3] = VCAP CRPC model, castrated mice, Compound 1 at 10 mg/kg IP BIW, 25 days
[4] = VCAP CRPC model, castrated mice, Compound 1 at 10 mg/kg IP BIW, 25 days, Day 57

SMILES: COc1cc(-c2cn(C)c(=O)c3cnc(N4CCC4)cc23)cc(OC)c1CN1CCC(CN2CCC3(CC2)CN(c2ccc4c(c2)C(=O)N(C2CCC(=O)NC2=O)C4)C3)CC1 (centres unmarked) [Compound 1, 3-(6-(7-((1-(4-(6-(azetidin-1-yl)-2-methyl-1-oxo-1,2-dihydro-2,7-naphthyridin-4-yl)-2,6-dimethoxybenzyl)piperidin-4-yl)methyl)-2,7-diazaspiro[3.5]nonan-2-yl)-1-oxoisoindolin-2-yl) piperidine-2,6-dione]
- animals found dead at the late stage of the treatment period ([1]; Compound 1 10 mg/kg, enzalutamide 30 mg/kg, deaths suspected due to castration surgery): One
- Tumor Growth % on Day 57 [1, 3]: 267 ± 20%
- Tumor Size on Day 57 [1, 3]: 697 ± 44 mm3
- T/C [1, 4]: 86.2%
- TGI [1, 4]: 13.8%
- TGI ([1]; VCaP CRPC model, castrated mice, Compound 1 10 mg/kg, enzalutamide 30 mg/kg, day 57 after tumor inoculation): 13.8%
- TGI with Compound 1 3 mg/kg ([2]; PC3 CDX model, AR−, 3 mg/kg BIW IP): 61.7%
- TGI ([2]; PC-3 CDX model, Compound 1 3 mg/kg BIW IP): 61.7%
